Molecules are shown by their SMILES. Counter-ions that a name gives are not always drawn. Like-named read-outs stand apart in the source and are kept apart here.

Assay [1] concerns right atrium preparation. Description: Isolated, blood-perfused right atrium preparation, sinus rate (Table 1). To be noted: Canis lupus familiaris, close-arterial injection, read-out: Right atrium preparation; for activation at 0.03 mg: dose 30 μg; for activation at 0.03 mg / activation at 0.1 mg / activation at 0.3 mg: % increase in sinus rate; for activation at 0.3 mg: dose 300 μg. More on the design: species or system Mongrel dogs. As for the experimental part:
Mongrel dogs of either sex weighting 7.5-10 kg were anesthetized with sodium pentobarbital (30 mg/kg, i.v.). Each animal was given an intravenous dose of sodium heparin (500 units/kg), thereafter, the heart was removed and placed in cold Tyrode solution. The isolated and cross-circulated right atrium and papillary muscle preparations were arranged for perfusion from a donor dog as follows. The donor dog was also anesthetized with sodium pentobarbital (30 mg/kg, i.v.); heparin (500 units/kg) was given intravenously immediately before the perfusion began. (b) The isolated, blood-perfused right atrium preparation. The sinus node artery was cannulated at its origin in the right coronary artery. A right atrial electrogram was obtained from bipolar electrodes which were placed in close proximity to the sinoatrial node. The sinus rate was recorded by a cardiotachometer triggered by the right atrial electrogram. The details of the bloodperfused right atrium preparation have been described by Chiba et al. (Tohoku J. exp. Med., 107, 101-102 (1972) and Kubota and Hashimoto (Naunyn-Schmiedeberg's Arch. Pharmacol., 278, 135-150 (1973)). Each preparation was perfused with the arterial blood from the carotid artery of the donor dog at a constant perfusion pressure of 100 mmHg by means of a peristaltic pump. The venous effluent from the preparations was collected in a reservoir and returned to the donor dog through the jugular vein. Test compounds used in these experiments were dissolved in vehicle solution and were injected closearterially to the preparations. The effects of each compound on the developed tension and sinuo rate were evaluated as a percentage change in values determined before and after administration of the compound. In Table 1 are shown such changes in terms of the percentage increase after administration.

Assay [2] has as its system papillary muscle preparation. Nature of the assay: Isolated, blood-perfused papillary muscle preparation, developed tension (Table 1). More on the design: species or system Mongrel dogs. To be noted: Canis lupus familiaris, close-arterial injection, read-out: Papillary muscle preparation, % increase in developed tension; for activation at 0.03 mg: dose 30 μg; for activation at 0.1 mg: dose 100 μg; for activation at 0.3 mg: dose 300 μg. How it is done: Mongrel dogs of either sex weighting 7.5-10 kg were anesthetized with sodium pentobarbital (30 mg/kg, i.v.). Each animal was given an intravenous dose of sodium heparin (500 units/kg), thereafter, the heart was removed and placed in cold Tyrode solution. The isolated and cross-circulated right atrium and papillary muscle preparations were arranged for perfusion from a donor dog as follows. The donor dog was also anesthetized with sodium pentobarbital (30 mg/kg, i.v.); heparin (500 units/kg) was given intravenously immediately before the perfusion began. (a) The isolated, blood-perfused papillary muscle preparation. The anterior septal artery was dissected and cannulated with polyethylene tubing. The tendinous end of the papillary muscle was connected to a strain-gauge transducer by a fine silk thread and the muscles were under about 2 g of resting tension. The papillary muscle preparation was electrically driven at a constant frequency of 120/min with rectangular pulses of 1-3 V and 5 msec duration. The preparation of the blood-perfused papillary muscle has been described in detail by Endoh and Hashimoto Am. J. Physiol, 218, 1459-1463 (1970). Each preparation was perfused with the arterial blood from the carotid artery of the donor dog at a constant perfusion pressure of 100 mmHg by means of a peristaltic pump. The venous effluent from the preparations was collected in a reservoir and returned to the donor dog through the jugular vein. Test compounds used in these experiments were dissolved in vehicle solution and were injected closearterially to the preparations. The effects of each compound on the developed tension and sinuo rate were evaluated as a percentage change in values determined before and after administration of the compound. In Table 1 are shown such changes in terms of the percentage increase after administration.

Assay [3] has as its system anesthetized open-chest dogs. Description: Cardiovascular effect in anesthetized open-chest dogs (Table 2). Type of assay: in vivo, Mongrel dogs. To be noted: femoral vein; for % decrease in aortic flow (in parentheses) / % decrease in cardiac contractility (in parentheses) / change in vivo at 0.3 mg/kg: 0.3 mg/kg; for change in vivo at 0.1 mg/kg / change in vivo at 0.3 mg/kg: Canis lupus familiaris, iv. How it is done:
Mongrel dogs of either sex weighing 9-15 kg were anesthetized with sodium pentobarbital (30 mg/kg, i.v.). The heart was exposed by thoractomy by the left fifth intercostal incision under artificial respiration. Aortic flow was measured by the probe of electromagnetic flowmeter placed around the ascending aorta. Myocardial contractility was measured by the maximal rate of rise of left ventricular pressure which was recorded from a needle inserted into the ventricular cavity. The systemic blood pressure was measured with a pressure transducer by means of a polyethylene cannular inserted into the femoral artery. The heart rate was recorded by a cardiotrachometer triggered by R wave of electrocargiogram (Lead II). Test compounds were dissolved in vehicle solution and were injected into the femoral vein. The effects of each compound on the cardiac contractility and aortic flow were evaluated as a percentage change in values determined before and after administration of the compound. In Table 2 are shown such changes in terms of the percentage increase after administration.

Where [4] appears, read: read-out: Increase in aortic flow (%).
Setting [5] is: read-out: Increase in cardiac contractility (%).

Consider `Br.Br.CN=C(NC)c1ccc(CCc2ccc(CN)cc2)cc1` [Compound 14, N,N'-Dimethyl-4-[2-(4-aminomethylphenyl)ethyl]benzamidine dihydrobromide], for which the values for the activation at 0.03 mg in assay [1] and in assay [2] were 28.9% and 59%, respectively. The activation at 0.1 mg in assay [1] (dose 100 μg) was found to be 31.8%; in assay [2] it was 100%. In addition, in assay [3], the “% decrease in aortic flow (in parentheses)” value (shortened to “% decrease in aortic flow”) was -16.3%. Moreover, in assay [3], the “% decrease in cardiac contractility (in parentheses)” value was -6.8%. In addition, the values for the change in vivo at 0.1 mg/kg in assay [3] (setting [4]) and in assay [3] (setting [5]) were 8.7% and 30%, respectively. In addition, the change in vivo at 0.3 mg/kg was found to be 32.7% in assay [3] (setting [4]) and 47.5% in assay [3] (setting [5]).
Regarding `CN=C(NC)c1ccc(CCc2ccc(CN)cc2[N+](=O)[O-])cc1.Cl.Cl` [Compound 18, 4-[2-(4-Aminomethyl-2-nitrophenyl)ethyl]-N,N'-dimethylbenzamidine dihydrochloride], in assay [1] (dose 100 μg, % decrease in sinus rate (in parentheses)), the inhibition at 0.1 mg was determined as 1.8%. The values for the activation at 0.1 mg in assay [1] (dose 100 μg) and in assay [2] were 14% and 64%, respectively. Moreover, the activation at 0.3 mg in assay [1] is 34.8%; in assay [2], 86.5%. Further, the “% decrease in aortic flow” value in assay [3] is -5.3%. The change in vivo at 0.1 mg/kg was 14.3% in assay [3] (setting [4]) and 59.3% in assay [3] (setting [5]). For the same compound, the results for the change in vivo at 0.3 mg/kg in assay [3] (setting [4]) and in assay [3] (setting [5]) were 23.7% and 155%, respectively.
`CCCCNC(=N)c1ccc(CCc2ccc(CN)cc2)cc1.Cl.Cl` [Compound 4, 4-[2-(4-Aminomethylphenyl)ethyl]-N-n-butyl-benzamidine dihydrochloride]: the values for the activation at 0.03 mg in assay [1] and in assay [2] were 19% and 45.8%, respectively. For the same compound, the activation at 0.1 mg in assay [1] (dose 100 μg) was found to be 30.6%; in assay [2] it was 76.5%. In addition, the “% decrease in cardiac contractility (in parentheses)” value in assay [3] is -3.4%. For the same compound, the change in vivo at 0.1 mg/kg came to 20% in assay [3] (setting [4]) and 26.1% in assay [3] (setting [5]). For the same compound, the change in vivo at 0.3 mg/kg turned out to be 50% in assay [3] (setting [4]) and 52.9% in assay [3] (setting [5]).
`CNC(=N)c1ccc(OCc2ccc(CN)cc2)cc1` [Compound 10, 4-(4-Aminomethylbenzyloxy)-N-methylbenzamidine dihydrochloride]: the activation at 0.1 mg in assay [1] (dose 100 μg) turned out to be 11.6%; in assay [2], 27.9%. Besides, the activation at 0.3 mg was 17.9% in assay [1] and 54.4% in assay [2]. The change in vivo at 0.3 mg/kg is 2.5% in assay [3] (setting [4]) and 8.7% in assay [3] (setting [5]).
`CNC(=N)c1ccc(C=Cc2ccc(CN)cc2)cc1` [Compound 7, 4-[2-(4-aminomethylphenyl)ethenyl]-N-methylbenzamidine dihydrochloride]: the activation at 0.1 mg stood at 8.3% in assay [1] (dose 100 μg) and 44.7% in assay [2]. Further, the activation at 0.3 mg came out at 28.2% in assay [1] and 66% in assay [2]. The change in vivo at 0.1 mg/kg in assay [3] (setting [4]) was determined as 4.2%; in assay [3] (setting [5]), 3.1%. Further, the change in vivo at 0.3 mg/kg in assay [3] (setting [4]) was 13.8%; in assay [3] (setting [5]), 16.7%.
In the case of `CNC(=N)c1ccc(CCc2ccc(CN)cc2)c([N+](=O)[O-])c1.Cl.Cl` [Compound 16, 4-[2-(4-Aminomethylphenyl)ethyl]-N-methyl-3-nitrobenzamidine dihydrochloride], the activation at 0.03 mg in assay [1] turned out to be 21.9%; in assay [2], 26%. For the same compound, the activation at 0.1 mg was found to be 29.7% in assay [1] (dose 100 μg) and 70.2% in assay [2]. Also, the “% decrease in aortic flow” value in assay [3] is -7.0%. Moreover, the change in vivo at 0.1 mg/kg in assay [3] (setting [4]) was 9%; in assay [3] (setting [5]), 32%. Also, the change in vivo at 0.3 mg/kg stood at 16.3% in assay [3] (setting [4]) and 69.4% in assay [3] (setting [5]).
